Values joined by “and” are separate entries in the source; they are usually repeats but may differ in a detail not shown here. Identical values can stand only once.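 Compound exposure: 48 hours, 5 concentrations, 96-well plates. At the GI50, growth is halved. At the TGI there is no net growth.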

Holding throughout (assay): DTP human tumour cell line panel, 48 h
Test [1] concerns SK-OV-3 ovarian.
The test system of test [2] is UO-31 renal.
The subject of test [3] is OVCAR-5 ovarian.
In test [4] the test system is A549 NSCLC.
Test [5] relates to UACC-62 melanoma.
The subject of test [6] is U251 CNS.
In test [7] the test system is MDA-MB-435.
The test system of test [8] is OVCAR-3 ovarian.
Test [9] deals with EKVX NSCLC.
For test [10], the system named is 786-0 renal.
Test [11] has as its system NCI/ADR-RES ovarian.

With `CC(=O)c1sc2c(c1OC(=O)c1ccccc1)c(=O)n(-c1ccccc1)c(=S)n2-c1ccccc1`, the TGI in [1] is over 49.9 µM; in test [2] it was 12.6 µM; in [3], 17.1 µM; in test [4], over 100 µM; in test [5] it was 32.8 µM; in [6] it was 23.7 µM. The TGI in test [7] is 28.9 µM; in test [8], over 62.5 µM; in test [9], 69.1 µM; in test [10] it was 17.9 µM; in test [11] it was 28.7 µM.

On to `CC(C)(Cl)C(Cl)CC/C(CBr)=C(\Cl)CBr` (configuration not stated), for which the TGI in [1] turned out to be 13.5 µM; in test [2] it was 8.86 µM; in test [3] it was 5.19 µM; in test [4] it was 30.3 µM; in test [5] it was 3.33 µM; in test [6], 3.57 µM. Besides, the TGI in [7] is 5.34 µM; in test [8], 6.81 µM; in test [9], 30.1 µM; in [10] it was 2.68 µM; in test [11], 7.9 µM.

For `CCCCCCC(O)C(=O)OC1C2C(CC1(C)C)C(O)C13OC1C(O)C1(CO1)[C@@]23C` (some centres not stated), the TGI in test [1], in test [2], in [3], in test [4], in test [5] and in test [6] was over 100 µM in each case. The TGI was over 100 µM in test [7]; over 100 µM in test [8]; over 100 µM in test [9]; 86.8 µM in test [10]; over 100 µM in test [11].

Turning to `O=c1[nH]c(Br)nc2n[nH]nc12`, the TGI in [1], in [2], in [3], in test [4], in [5] and in [6] was over 100 µM throughout. Moreover, the TGI in [7], in [8], in [9], in test [10] and in test [11] was over 100 µM in each case.

With `C[n+]1ccc2/c(=C\C#N)c3ccccc3n21`, the TGI in [1] was 83 µM; in [2] it was over 100 µM; in test [3] it was over 100 µM; in test [4], 52.7 µM; in [5], over 100 µM; in test [6] it was 72.8 µM. For the same compound, the TGI in [7] was 63 µM; in [8], 34.2 µM; in [9], 85.2 µM; in [10] it was over 100 µM; in test [11] it was over 100 µM.

As for `C/C1=C\CC[C@@]2(C)O[C@@H]2C[C@@H]2[C@H](C/C(C)=C/CC1)OC(=O)[C@]21CO1`, the concentration for total growth inhibition (TGI) in test [1], in [2], in [3], in [4], in test [5] and in test [6] was over 100 µM each time. The total growth inhibition concentration (TGI) in [7], in [8], in test [9], in test [10] and in [11] was over 100 µM each time.

Turning to `NC1C2C=CC(C2)C1C(=O)O` (configuration not stated), the TGI in test [1], in test [2], in test [3], in [4], in test [5] and in test [6] was over 100 µM each time. Moreover, the TGI in [7], in test [8], in test [9], in test [10] and in [11] was over 100 µM throughout.

Turning to `Oc1ccccc1CNCc1ccccc1O`, the TGI in [1], in [2], in [3], in test [4], in test [5] and in [6] was over 100 µM throughout. The TGI in [7], in [8], in test [9], in test [10] and in [11] was over 100 µM throughout.

Regarding `Cc1nnc(N)nc1C/C=C/C(C)Sc1ccc(Cl)cc1` (configuration not stated), the TGI in [1] is 21.9 µM; in test [2], 19.4 µM; in test [3], 36.9 µM; in test [4] it was 58.6 µM; in test [5], 17.8 µM; in test [6], over 42 µM. Besides, the TGI in test [7] was over 50.8 µM; in test [9] it was 23.3 µM; in test [10] it was 33.1 µM; in test [11], over 60.3 µM.

For `CC(c1ccccc1)n1c2ccccc2c2c(N)ncnc21` (configuration not stated), the TGI is 29.5 µM in test [1]; 22.2 µM in test [2]; 37.9 µM in test [3]; 46.3 µM in test [4]; 30.5 µM in test [6]; 31 µM in [7]. Moreover, the TGI in [8] came to 30.6 µM; in test [9], 24.7 µM; in test [10] it was 28.6 µM; in [11], 46.3 µM.

`CCOC(OCC)[C@@H]1C[C@@H]2N(O[C@H](OC3CCCC3(c3ccccc3)c3ccccc3)[C@H](OC(C)=O)[C@@]2(CC)Cc2ccc(OC)c(OC)c2)O1` (some centres not stated): the TGI in test [1], in test [2], in test [3], in test [4], in [5] and in test [6] was over 100 µM each time. Besides, the TGI in [7], in [8], in [9], in test [10] and in test [11] was over 100 µM throughout.

Regarding `NCCNc1ccc(NCCN)c2c1C(=O)c1c(O)ccc(O)c1C2=O`, the GI50 in [1] is 0.0151 µM; in test [2], 0.0579 µM; in test [3], 0.364 µM; in test [5], 0.0228 µM; in test [6], 0.0238 µM; in test [8], 0.385 µM. For the same compound, the GI50 was 0.112 µM in test [9] and 0.237 µM in [11]. Also, the TGI in [2] was 0.823 µM and 0.374 µM; in [3], 1.5 µM and 3.18 µM; in test [4] it was 0.223 µM and 0.393 µM; in test [5], 0.89 µM and 0.313 µM; in [6], 0.845 µM and 0.137 µM; in test [7], 2.37 µM. In addition, the total growth inhibition concentration (TGI) is 2.18 µM and 1.66 µM in [8]; 1.3 µM and 0.435 µM in [9]; 0.0555 µM and 0.0497 µM in test [10]; 1.39 µM and 2.84 µM in test [11].

The TGI is the concentration giving total growth inhibition. The low end stands for greater sensitivity of the cells, the high end for lower sensitivity of the cells. A word on the GI50: it is the concentration giving 50% growth inhibition.
